Source: EP4703359A1 (Shanghai Simr Biotechnology Co., Ltd., priority 2023, dated 2024)

Assays:
α2-GABAA receptor [1] = molecular target: T1, α2-GABAA receptor (Homo sapiens, UniProt P18507+P47869); assay: Whole-cell patch-clamp electrophysiology, positive allosteric modulatory activity in α2-GABAAR-HEK293 cells; format: cell-based; conditions: compound 100 nM; GABA 0.10 to 0.11 µM (approximately EC7-8); normalized to reference compound CVL-865 (= 100%); read-out: α2-GABAAR Positive allosteric modulatory activity
T1 construct: expressed in transfected cells
Outline: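 HEK293 cells stably co-expressing α2β3γ2 GABAA receptor, whole-cell patch clamp at -60 mV. Compounds at 100 nM final applied with GABA 0.10–0.11 µM (~EC7-8) after GABA-only current stabilized. […]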

α2-GABAA receptor [2] = molecular target: T1, α2-GABAA receptor; assay: Radioactive ligand (3H-flunitrazepam) competitive binding assay, BZD site of membrane proteins of α2-GABAAR-HEK293 cells; conditions: competition with 1 nM 3H-flunitrazepam; HEK293 membranes expressing α2, β3, γ2 subunits; Ki calculated from IC50; read-out: α2 Ki
Source text: The α subunit, β subunit, and γ subunit are indispensable for forming a fully functional GABAA receptor. In this example, HEK293 cells stably expressing α2-GABAA receptors (α2-GABAAR) were constructed and screened respectively via liposome transfection (Felgner, P.L., et al. Proceedings of the National Academy of Sciences, 1987, 84: 7413-7417). The α2-GABAAR-HEK293 cell model co-expresses the α2 subunit (protein sequence referenced under GenBank accession number: NM_000807.4), β3 subunit (protein sequence referenced under GenBank accession number: NM_000814.5), and γ2 subunit (protein sequence referenced under GenBank accession number: NM_000816.3).
The above cell lines were subcultured. α2-GABAAR-HEK293 cells were amplified for testing the affinity of compounds to the benzodiazepine (BZD) site of GABAA receptors. Some of the α2-GABAAR-HEK293 cells in suspension during subculturing were plated on glass slides pre-treated with Poly-D-Lysine for electrophysiological testing (method reference: Patent CN 107344936 A, paragraph 0586).
The affinity of the compound for the α2-GABAA receptor was determined by competing with ^3H-flunitrazepam (isotope ^3H-labeled flunitrazepam) for binding to the BZD site of membrane proteins in HEK293 cells stably expressing human α2-GABAAR.
Membrane preparation: Cells were suspended in 50 mM Tris-HCl buffer (pH=7.4), homogenized on ice using a homogenizer for 20 seconds with 10 repetitions, and centrifuged at 4°C, 1000g for 10 minutes. The supernatant was collected, and the above steps were repeated. The supernatant was centrifuged at 4°C (33,800 × g; Thermo, rotor: A27-8x50) for 60 minutes, and the pellet was resuspended in Tris buffer (50 mM Tris-HCl, 10 mM MgCl2, 0.5 mM EDTA, 10% glycerol). The protein concentration was determined using the bicinchoninic acid (BCA) protein assay based on the copper ion reduction method (BCA kit purchased from Pierce (Annoron)). Aliquots of 1 mL were prepared and stored at -80°C.
Radioactive ligand competitive binding assay: This assay was conducted in a 200 µL system (96-well plate), containing 100 µL of cell membrane. The concentration of ^3H-flunitrazepam was 1 nM, and the concentration of the test compound ranged from […]. Flumazenil was used as a control. The low signal control well (Low Control, LC) was added with 1 µL of 2 mM flumazenil (final concentration 10 µM), while the high signal control well (High Control, HC) was added with 1 µL of dimethyl sulfoxide. The final concentration of the target membrane protein was 5 µg/well. All test compound stock solutions were prepared as 10 mM solutions in dimethyl sulfoxide. The working concentration of the samples was prepared by diluting all samples to 0.2 mM with dimethyl sulfoxide, followed by a 4-fold serial dilution to obtain a total of 8 concentration gradients. The 96-well plate was sealed with sealing film and then incubated on a shaker at room temperature for 1 hour. The GF/C filter plate was also soaked with a soaking buffer (0.3% PEI (polyethyleneimine, purchased from: Sigma-Aldrich, model: P314), stored at 4°C) for at least 0.5 hours. After the incubation was completed, the mixture was collected onto a GF/C filter plate using a cell harvester and washed four times with wash buffer (50 mM Tris-HCl, pH 7.4, stored at 4°C). After drying in a 50°C oven for 1 hour, the dried GF/C filter plate was sealed at the bottom with a film. The residual radioactivity on the filter membrane was detected using liquid scintillation counting. Each well was filled with 50 µL of scintillation fluid and sealed. Readings were taken using a Microbeta^2 (microplate counter, purchased from PerkinElmer, model: CNLL0153). The inhibitory activity of the test sample on the binding of ^3H-flunitrazepam to GABAA receptor membrane protein was calculated. […]

Row | Emax at 0.1 µM (α2-GABAA receptor [1]) [%] | Ki (α2-GABAA receptor [2]) [nM] | Compound
1 | 35 | 87 | CCCNC(=O)c1nc2c(OCc3c(F)cccc3OC)cccn2c1N [Example 151, 3-Amino-8-((2-fluoro-6-methoxybenzyl)oxy)-N-propylimidazo[1,2-a]pyridine-2-carboxamide]
2 | 155 | 15.5 | COc1ccc(C)cc1-c1cccn2c(N)c(C(=O)NC3CC(C)C3)nc12 (stereo not drawn) [Example 33, 3-Amino-8-(2-methoxy-5-methylphenyl)-N-(3-methylcyclobutyl)imidazo[1,2-a]pyridine-2-carboxamide]
3 | 65 | 39 | COc1cccc(F)c1-c1cccn2c(N)c(C(=O)NC3CC3)nc12 [Example 5, 3-Amino-8-(2-fluoro-6-methoxyphenyl)-N-cyclopropylimidazo[1,2-a]pyridine-2-carboxamide]
4 | 126 | 5.17 | CCCNC(=O)c1nc2c(-c3c(OC)ccc(C)c3F)cccn2c1N [Example 77, 3-Amino-8-(2-fluoro-6-methoxy-3-methylphenyl)-N-propylimidazo[1,2-a]pyridine-2-carboxamide]
5 | 44 | 95 | CCCNC(=O)c1nc2c(-c3c(Cl)cccc3OC)cccn2c1N [Example 72, 3-Amino-8-(2-chloro-6-methoxyphenyl)-N-propylimidazo[1,2-a]pyridine-2-carboxamide]
6 | 77 | 11.1 | [2H]C([2H])([2H])Oc1cccc(F)c1-c1cccn2c(N)c(C(=O)NCCC)nc12 [Example 138, 3-Amino-8-(2-fluoro-6-(methoxy-d3)phenyl)-N-propylimidazo[1,2-a]pyridine-2-carboxamide]
7 | 140 | 5.7 | CCCNC(=O)c1nc2c(-c3cc(C#N)ccc3OC)cccn2c1N [Example 60, 3-Amino-8-(5-cyano-2-methoxyphenyl)-N-propylimidazo[1,2-a]pyridine-2-carboxamide]
8 | 74 | 31.7 | CCCNC(=O)c1nc2c(-c3c(F)ccc(C)c3OC)cccn2c1N [Example 78, 3-Amino-8-(6-fluoro-2-methoxy-3-methylphenyl)-N-propylimidazo[1,2-a]pyridine-2-carboxamide]
9 | 101 | 12.9 | CCCNC(=O)c1nc2c(-c3c(OC)ccc(F)c3F)cccn2c1N [Example 76, 3-Amino-8-(2,3-difluoro-6-methoxyphenyl)-N-propylimidazo[1,2-a]pyridine-2-carboxamide]
10 | 156 | 19.2 | CCCNC(=O)c1nc2c(-c3cc(C)ccc3OC)cccn2c1N [Example 49, 3-Amino-8-(2-methoxy-5-methylphenyl)-N-propylimidazo[1,2-a]pyridine-2-carboxamide]
11 | 160 | 39.6 | CCCNC(=O)c1nc2c(-c3c(F)ccc4c3oc(=O)n4C)cccn2c1N [Example 105, 3-Amino-8-(6-fluoro-3-methyl-2-oxo-2,3-dihydrobenzo[d]oxazol-7-yl)-N-propylimidazo [1,2-a] pyridine-2-carboxamide]
12 | 71 | 4.97 | CCCNC(=O)c1nc2c(-c3cc4c(cc3OC)N(C)C(=O)CO4)c(F)ccn2c1N [Example 123, 3-Amino-7-fluoro-8-(6-methoxy-4-methyl-3-oxo-3,4-dihydro-2H-benzo[b][1,4]oxazin-7-yl)-N-propylimidazo[1,2-a]pyridine-2-carboxamide]
13 | 107 | 44 | COc1cccc(F)c1-c1cccn2c(N)c(C(=O)Nc3ccccc3)nc12 [Example 13, 3-Amino-8-(2-fluoro-6-methoxyphenyl)-N-phenylimidazo[1,2-a]pyridine-2-carboxamide]
14 | 95 | 4.97 | CCCNC(=O)c1nc2c(Oc3cc(F)ccc3OC)cccn2c1N [Example 144, 3-Amino-8-(5-fluoro-2-methoxyphenoxy)-N-propylimidazo[1,2-a]pyridine-2-carboxamide]
15 | 192 | 5.29 | CCCNC(=O)c1nc2c(-c3cc(Cl)ccc3OC)cccn2c1N [Example 62, 3-Amino-8-(5-chloro-2-methoxyphenyl)-N-propylimidazo[1,2-a]pyridine-2-carboxamide]
16 | 89 | 27.8 | CCCNC(=O)c1nc2c(-c3cc(F)cc(C#N)c3)cccn2c1N [Example 55, 3-Amino-8-(3-cyano-5-fluorophenyl)-N-propylimidazo[1,2-a]pyridine-2-carboxamide]
17 | 71 | 40.1 | CCCNC(=O)c1nc2c(-c3c(F)ccc(F)c3OC)cccn2c1N [Example 79, 3-Amino-8-(3,6-difluoro-2-methoxyphenyl)-N-propylimidazo[1,2-a]pyridine-2-carboxamide]
18 | 52 | 93 | COc1cccc(F)c1-c1cccn2c(N)c(C(=O)NC3CC(F)(F)C3)nc12 [Example 9, 3-Amino-N-(3,3-difluorocyclobutyl)-8-(2-fluoro-6-methoxyphenyl)imidazo[1,2-a]pyridine-2-carboxamide]
19 | 138 | 15 | CCCNC(=O)c1nc2c(-c3cc(C(F)F)ccc3OC)cccn2c1N [Example 67, 3-Amino-8-(5-(difluoromethyl)-2-methoxyphenyl)-N-propylimidazo[1,2-a]pyridine-2-carboxamide]
20 | 92 | 51 | CCCNC(=O)c1nc2c(-c3cc(C4CC4)ccc3OC)cccn2c1N [Example 68, 3-Amino-8-(5-cyclopropyl-2-methoxyphenyl)-N-propylimidazo[1,2-a]pyridine-2-carboxamide]
21 | 108 | 13.3 | CCCNC(=O)c1nc2c(-c3cccc(C#N)c3)cccn2c1N [Example 35, 3-Amino-8-(3-cyanophenyl)-N-propylimidazo[1,2-a]pyridine-2-carboxamide]
